Test results from US20240343704A1, “HALO-SUBSTITUTED AMINO PYRIDINE COMPOUNDS AS INHIBITORS OF THE HAEMATOPOIETIC PROGENITOR KINASE 1 (HPK1)” (priority 2021, published 2024).

Tests used:
[1] = target: T1, Recombinant (1-346) HPK1 (h) (Homo sapiens, UniProt Q92918); experiment: HPK1 Human STE Kinase Enzymatic Radiometric Assay; assay type: biochemical; conditions: read-out: HPK1 IC50 nM Range*
T1 construct: Recombinant (1-346) HPK1 (h) is incubated with 8 mM MOPS pH 7.0
T1 sequence (Q92918 1-346): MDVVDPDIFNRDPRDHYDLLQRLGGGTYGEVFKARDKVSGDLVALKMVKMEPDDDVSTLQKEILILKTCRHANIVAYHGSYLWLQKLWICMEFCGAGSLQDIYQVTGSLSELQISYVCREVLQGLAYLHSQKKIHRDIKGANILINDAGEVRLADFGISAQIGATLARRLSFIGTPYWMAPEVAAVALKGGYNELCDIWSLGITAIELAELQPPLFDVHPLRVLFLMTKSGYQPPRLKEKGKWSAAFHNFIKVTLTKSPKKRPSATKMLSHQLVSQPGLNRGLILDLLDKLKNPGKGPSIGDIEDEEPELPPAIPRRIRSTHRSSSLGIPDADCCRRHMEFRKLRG
Protocol: A stock solution of 10 mM of test compound is prepared in DMSO. The compound plate was prepared by 3-fold and 9-point serial dilutions. […] The reaction is initiated by The addition of the Mg/ATP mix. After incubation for 40 minutes at RT, the reaction is stopped by the addition of phosphoric acid to a concentration of 0.5%.

Lck (h) = Lck (h) (Homo sapiens, UniProt P06239); experiment: Lck Human  Kinase Enzymatic Radiometric Assay; assay type: biochemical; conditions: read-out: Lck IC50 nM Range*
Chain of Lck (h) (P06239 whole entry): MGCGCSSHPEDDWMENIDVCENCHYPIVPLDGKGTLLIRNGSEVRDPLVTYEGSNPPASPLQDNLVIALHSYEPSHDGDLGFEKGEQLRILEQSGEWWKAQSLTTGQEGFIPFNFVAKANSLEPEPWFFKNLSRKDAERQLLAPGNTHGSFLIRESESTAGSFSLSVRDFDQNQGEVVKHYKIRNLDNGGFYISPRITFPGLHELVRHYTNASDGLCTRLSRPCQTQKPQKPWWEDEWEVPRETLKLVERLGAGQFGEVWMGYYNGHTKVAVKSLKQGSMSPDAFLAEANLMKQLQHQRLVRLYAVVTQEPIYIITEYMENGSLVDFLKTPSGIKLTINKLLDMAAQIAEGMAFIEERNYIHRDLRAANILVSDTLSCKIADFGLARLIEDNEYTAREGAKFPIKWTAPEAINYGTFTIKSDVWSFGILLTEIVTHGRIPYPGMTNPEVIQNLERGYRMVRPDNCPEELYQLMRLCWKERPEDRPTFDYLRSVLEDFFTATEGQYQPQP
Summary of the method: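 Substrate 33P-incorporation measured by scintillation counting after spotting on P30 filtermat and phosphoric acid washes. Human Lck reacted 40 min at RT in 50 mM Tris pH 7.5 with 10 mM MgAcetate, [gamma-33P]-ATP, 250 uM Cdc2 peptide, 0.1 mM EGTA and 0.1 mM Na3VO4.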

SMILES | IC50 [1] | IC50 (Lck (h))
CC(C)N1CCN(c2ccc(-c3cc(-c4ccc5c(=O)[nH]cnc5c4)c(N)nc3F)cc2)CC1 [I-362, 7-(2-amino-6-fluoro-5-(4-(4-isopropylpiperazin-1-yl)phenyl)pyridin-3-yl)quinazolin-4(3H)-one] | 0.1 to 10 nM | > 1000 nM
CC(C)N1CCN(c2ccc(-c3cc(-c4ccc5c(=O)[nH]ncc5c4)c(N)nc3F)cc2)CC1 [I-363, 6-(2-amino-6-fluoro-5-(4-(4-isopropylpiperazin-1-yl)phenyl)pyridin-3-yl)phthalazin-1(2H)-one] | 11 to 100 nM | > 1000 nM
CC(C)N1CCN(c2ccc(-c3cc(-c4ccc5c(=O)[nH]ccc5c4)c(N)nc3F)cc2)CC1 [I-364, 6-(2-amino-6-fluoro-5-(4-(4-isopropylpiperazin-1-yl)phenyl)pyridin-3-yl)isoquinolin-1(2H)-one] | 0.1 to 10 nM | > 1000 nM
Nc1nc(F)c(-c2ccc(C3CCOCC3)c([C@@H]3CCCN3)c2)cc1-c1ccc2c(c1)CCNC2=O [I-367, (S)-6-(2-amino-6-fluoro-5-(3-(pyrrolidin-2-yl)-4-(tetrahydro-2H-pyran-4-yl)phenyl)pyridin-3-yl)-3,4-dihydroisoquinolin-1(2H)-one] | 0.1 to 10 nM | 101 to 1000 nM
Nc1nc(F)c(-c2ccc(C3CCOCC3)c([C@@H]3CCCN3)c2)cc1-c1cc2c(cc1F)C(=O)NCC2 [I-368, (S)-6-(2-amino-6-fluoro-5-(3-(pyrrolidin-2-yl)-4-(tetrahydro-2H-pyran-4-yl)phenyl)pyridin-3-yl)-7-fluoro-3,4-dihydroisoquinolin-1(2H)-one] | 0.1 to 10 nM | 11 to 100 nM
Nc1nc(F)c(-c2ccc(C3CCOCC3)c([C@@H]3CCCN3)c2)cc1-c1cc(F)c2c(c1)CCNC2=O [I-369, (S)-6-(2-amino-6-fluoro-5-(3-(pyrrolidin-2-yl)-4-(tetrahydro-2H-pyran-4-yl)phenyl)pyridin-3-yl)-8-fluoro-3,4-dihydroisoquinolin-1(2H)-one] | 0.1 to 10 nM | > 1000 nM
Nc1nc(F)c(-c2ccc(C3CCOCC3)c([C@@H]3CCCN3)c2)cc1-c1ccc2c(=O)[nH]ccc2c1 [I-370, (S)-6-(2-amino-6-fluoro-5-(3-(pyrrolidin-2-yl)-4-(tetrahydro-2H-pyran-4-yl)phenyl)pyridin-3-y)isoquinolin-1(2H)-one] | 0.1 to 10 nM | > 1000 nM
CC(C)N1CCN(c2ccc(-c3cc(-c4cc(F)c5c(=O)[nH]ccc5c4)c(N)nc3F)cc2)CC1 [I-372, 6-(2-amino-6-fluoro-5-(4-(4-isopropylpiperazin-1-yl)phenyl)pyridin-3-yl)-8-fluoroisoquinolin-1(2H)-one] | 0.1 to 10 nM | 101 to 1000 nM
CC(C)N1CCN(c2ccc(-c3cc(-c4cc5cc[nH]c(=O)c5cc4F)c(N)nc3F)cc2)CC1 [I-373, 6-(2-amino-6-fluoro-5-(4-(4-isopropylpiperazin-1-yl)phenyl)pyridin-3-yl)-7-fluoroisoquinolin-1(2H)-one] | 0.1 to 10 nM | 11 to 100 nM
Nc1nc(F)c(-c2ccc(N3CCN(CC4CC4)CC3)cc2)cc1-c1ccc2c(=O)[nH]ccc2c1 [I-374, 6-(2-amino-5-(4-(4-(cyclopropylmethyl)piper-azin-1-yl)phenyl)-6-fluoropyridin-3-yl)isoquinolin-1(2H)-one] | 0.1 to 10 nM | > 1000 nM
Nc1nc(F)c(-c2ccc(N3CCN(CC4CC4)CC3)cc2)cc1-c1cc(F)c2c(=O)[nH]ccc2c1 [I-375, 6-(2-amino-5-(4-(4-(cyclopropylmethyl)piper-azin-1-yl)phenyl)-6-fluoropyridin-3-yl)-8-fluoroisoquinolin-1(2H)-one] | 0.1 to 10 nM | > 1000 nM
Nc1nc(F)c(-c2ccc(N3CCN(CC4CC4)CC3)cc2)cc1-c1cc2cc[nH]c(=O)c2cc1F [I-376, 6-(2-amino-5-(4-(4-(cyclopropylmethyl)piper-azin-1-yl)phenyl)-6-fluoropyridin-3-yl)-7-fluoroisoquinolin-1(2H)-one] | 0.1 to 10 nM | > 1000 nM
Cc1cc2cc(-c3cc(-c4ccc(N5CCN(C(C)C)CC5)cc4)c(F)nc3N)ccc2c(=O)[nH]1 [I-377, 6-(2-amino-6-fluoro-5-(4-(4-isoporpylpiperazin-1-yl)phenyl)pyridin-3-yl)-3-methylisoquinolin-1(2H)-one] | 0.1 to 10 nM | 101 to 1000 nM
Cc1c[nH]c(=O)c2ccc(-c3cc(-c4ccc(N5CCN(C(C)C)CC5)cc4)c(F)nc3N)cc12 [I-378, 6-(2-amino-6-fluoro-5-(4-(4-isopropylpiperazin-1-yl)phenyl)pyridin-3-yl)-4-methylisoquinolin-1(2H)-one] | 0.1 to 10 nM | > 1000 nM
CC(C)N1CCN(c2ccc(-c3cc(-c4ccc5c(=O)[nH]cc(F)c5c4)c(N)nc3F)cc2)CC1 [I-379, 6-(2-amino-6-fluoro-5-(4-(4-isopropylpiperazin-1-yl)phenyl)pyridin-3-yl)-4-fluoroisoquinolin-1(2H)-one] | 0.1 to 10 nM | > 1000 nM
Cc1cc2cc(-c3cc(-c4ccc(N5CCN(C(C)C)CC5)cc4)c(F)nc3N)cc(F)c2c(=O)[nH]1 [I-380, 6-(2-amino-6-fluoro-5-(4-(4-isopropylpiperazin-1-yl)phenyl)pyridin-3-yl)-8-fluoro-3-methylisoquinolin-1(2H)-one] | 0.1 to 10 nM | > 1000 nM
Cc1[nH]c(=O)c2ccc(-c3cc(-c4ccc(N5CCN(C(C)C)CC5)cc4)c(F)nc3N)cc2c1F [I-381, 6-(2-amino-6-fluoro-5-(4-(4-isopropylpiperazin-1-yl)phenyl)pyridin-3-yl)-4-fluoro-3-methylisoquinolin-1(2H)-one] | 101 to 1000 nM | > 1000 nM
Nc1nc(F)c(-c2ccc(N3CCN(CCC4CC4)CC3)cc2)cc1-c1cc(F)c2c(c1)CCNC2=O [I-384, 6-(2-amino-5-(4-(4-(2-cyclopropylethyl)piperazin-1-yl)phenyl)-6-fluoropyridin-3-yl)-8-fluoro-3,4-dihydroisoquinolin-1(2H)-one] | 0.1 to 10 nM | 101 to 1000 nM
CC(C)N1CCN(c2ccc(-c3cc(-c4cc(F)c5c(c4)CCNC5=O)c(N)nc3F)cc2F)CC1 [I-386, 6-(2-amino-6-fluoro-5-(3-fluoro-4-(4-isopropylpiperazin-1-yl)phenyl)pyridin-3-yl)-8-fluoro-3,4-dihydroisoquinolin-1(2H)-one] | 0.1 to 10 nM | 0.1 to 10 nM
Nc1nc(F)c(-c2ccc(N3CCN(CCC4CC4)CC3)cc2)cc1-c1ccc2c(=O)[nH]ccc2c1 [I-389, 6-(2-amino-5-(4-(4-(2-cyclopropylethyl)piperazin-1-yl)phenyl)-6-fluoropyridin-3-yl)isoquinolin-1(2H)-one] | 0.1 to 10 nM | > 1000 nM
C[C@H](C1CC1)N1CCN(c2ccc(-c3cc(-c4cc(F)c5c(c4)CCNC5=O)c(N)nc3F)cc2)CC1 [I-390, (R)-6-(2-amino-5-(4-(4-(1-cyclopropylethyl)piperazin-1-yl)phenyl)-6-fluoropyridin-3-yl)-8-fluoro-3,4-dihydroisoquinolin-1(2H)-one] | 0.1 to 10 nM | 101 to 1000 nM
C[C@H](C1CC1)N1CCN(c2ccc(-c3cc(-c4cc(F)c5c(=O)[nH]ccc5c4)c(N)nc3F)cc2)CC1 [I-391, (R)-6-(2-amino-5-(4-(4-(1-cyclopropylethyl)piperazin-1-yl)phenyl)-6-fluoropyridin-3-yl)-8-fluoroisoquinolin-1(2H)-one] | 0.1 to 10 nM | 101 to 1000 nM
C[C@@H](C1CC1)N1CCN(c2ccc(-c3cc(-c4cc(F)c5c(=O)[nH]ccc5c4)c(N)nc3F)cc2)CC1 [I-393, (S)-6-(2-amino-5-(4-(4-(1-cyclopropylethyl)piperazin-1-yl)phenyl)-6-fluoropyridin-3-yl)-8-fluoroisoquinolin-1(2H)-one] | 0.1 to 10 nM | 101 to 1000 nM
CCN1CCN(c2ccc(-c3cc(-c4cc(F)c5c(=O)[nH]ccc5c4)c(N)nc3F)cc2)CC1 [I-394, 6-(2-amino-5-(4-(4-ethylpiperazin-1-yl)phenyl)-6-fluoropyridin-3-yl)-8-fluoroisoquinolin-1(2H)-one] | 0.1 to 10 nM | 101 to 1000 nM
Nc1nc(F)c(-c2ccc(N3CCOCC3)cc2)cc1-c1cc(F)c2c(=O)[nH]ccc2c1 [I-396, 6-(2-amino-6-fluoro-5-(4-morpholinophenyl)pyridin-3-yl)-8-fluoroisoquinolin-1(2H)-one] | 0.1 to 10 nM | > 1000 nM
CC(C)N1CCN(c2ccc(-c3cc(-c4cc5c(cn4)C(=O)NCC5)c(N)nc3F)cc2)CC1 [I-398, 6-(2-amino-6-fluoro-5-(4-(4-isopropylpiperazin-1-yl)phenyl)pyridin-3-yl)-3,4-dihydro-2,7-naphthyridin-1(2H)-one] | 0.1 to 10 nM | 101 to 1000 nM
Nc1nc(F)c(-c2ccc(N3CCN(CC4CC4)CC3)cc2)cc1-c1cc2c(cn1)C(=O)NCC2 [I-400, 6-(2-amino-5-(4-(4-(cyclopropylmethyl)piper-azin-1-yl)phenyl)-6-fluoropyridin-3-yl)-3,4-dihydro-2,7-naphthyridin-1(2H)-one] | 0.1 to 10 nM | 101 to 1000 nM
